The target of the assay is T1, human oxytocin receptor (Homo sapiens, UniProt P30559).
T1 construct: host or cells: CHO cells (pcDNA3.1 vector)
T1 sequence (P30559 1-389): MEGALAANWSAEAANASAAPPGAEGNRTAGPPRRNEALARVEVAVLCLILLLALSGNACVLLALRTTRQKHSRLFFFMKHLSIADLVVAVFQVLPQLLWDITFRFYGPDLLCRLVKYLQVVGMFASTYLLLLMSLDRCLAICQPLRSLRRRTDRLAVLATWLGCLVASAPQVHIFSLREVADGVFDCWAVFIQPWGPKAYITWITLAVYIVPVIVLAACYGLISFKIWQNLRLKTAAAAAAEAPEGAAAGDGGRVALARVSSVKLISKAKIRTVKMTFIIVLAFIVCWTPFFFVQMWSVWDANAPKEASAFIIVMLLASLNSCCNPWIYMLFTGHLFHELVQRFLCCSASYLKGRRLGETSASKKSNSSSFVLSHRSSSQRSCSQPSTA
In words: Oxytocin binding in Chinese Hamster Ovary cell membranes expressing human oxytocin receptors. The conditions noted are these: 100 nM, CHO cell membranes, [3H]oxytocin, values without parentheses, read-out: OT % inhibition @ 100% nM.

In the case of `COc1ccccc1-c1ccc(C(=O)N2Cc3ccc(C(=O)N[C@H]4CN5CCC4CC5)n3Cc3ccccc32)cc1OC` [Example 299, N-[(3R)-1-Azabicyclo[2.2.2]oct-3-yl]-10-[(2,2′-dimethoxy[1,1′-biphenyl]-4-yl)carbonyl]-10,11-dihydro-5H-pyrrolo[2,1-c][1,4]benzodiazepine-3-carboxamide], the inhibition – broadly, the drop in the measured response relative to a control, in per cent – at 0.1 µM came out at 86%. As for `COc1ccccc1-c1ccc(C(=O)N2Cc3ccc(C(=O)N[C@@H]4CN5CCC4CC5)n3Cc3ccccc32)cc1OC` [Example 300, N-[(3S)-1-Azabicyclo[2.2.2]oct-3-yl]-10-[(2,2′-dimethoxy[1,1′-biphenyl]-4-yl)carbonyl]-10,11-dihydro-5H-pyrrolo[2,1-c][1,4]benzodiazepine-3-carboxamide], the inhibition at 0.1 µM came out at 72%.

Consider `Cc1cc(C(=O)N2Cc3ccc(C(=O)N[C@H]4CN5CCC4CC5)n3Cc3ccccc32)ccc1-c1ccccc1C(F)(F)F` [Example 301, N-[(3R)-1-Azabicyclo[2.2.2]oct-3-yl]-10-{[2-methyl-2′-(trifluoromethyl)[1,1′-biphenyl]-4-yl]carbonyl}-10,11-dihydro-5H-pyrrolo[2,1-c][1,4]benzodiazepine-3-carboxamide], for which the inhibition at 0.1 µM was 82%.

With `COc1cccc(-c2cc(OC)c(C(=O)N3Cc4ccc(C(=O)N[C@@H](CCCCNC(=O)OC(C)(C)C)C(N)=O)n4Cc4ccccc43)cc2Cl)c1` [Example 302, tert-Butyl (5S)-6-amino-5-[({10-[(6-chloro-3,3′-dimethoxy[1,1′-biphenyl]-4-yl)carbonyl]-10,11-dihydro-5H-pyrrolo[2,1-c][1,4]benzodiazepin-3-yl}carbonyl)amino]-6-oxohexylcarbamate], the inhibition at 0.1 µM worked out at 64%. Take `COc1ccccc1-c1ccc(C(=O)N2Cc3ccc(C(=O)N[C@@H](CCCCNC(=O)OC(C)(C)C)C(N)=O)n3Cc3ccccc32)cc1OC` [Example 303, tert-Butyl (5S)-6-amino-5-[({10-[(2,2′-dimethoxy[1,1′-biphenyl]-4-yl)carbonyl]-10,11-dihydro-5H-pyrrolo[2,1-c][1,4]benzodiazepin-3-yl}carbonyl)amino]-6-oxohexylcarbamate]: the inhibition at 0.1 µM worked out at 66%.

Regarding `COc1cc(-c2ccccc2C)c(Cl)cc1C(=O)N1Cc2ccc(C(=O)N[C@@H](CCCCNC(=O)OC(C)(C)C)C(N)=O)n2Cc2ccccc21` [Example 304, tert-Butyl (5S)-6-amino-5-[({10-[(6-chloro-3-methoxy-2′-methyl[1,1′-biphenyl]-4-yl)carbonyl]-10,11-dihydro-5H-pyrrolo[2,1-c][1,4]benzodiazepin-3-yl}carbonyl)amino]-6-oxohexylcarbamate], the inhibition at 0.1 µM stood at 74%. Turning to `COc1cc(C(=O)N2Cc3ccc(C(=O)N4CCN(C)CC4)n3Cc3ccccc32)ccc1-n1c(C)ccc1C` [Example 306, {10-[4-(2,5-Dimethyl-1H-pyrrol-1-yl)-3-methoxybenzoyl]-10,11-dihydro-5H-pyrrolo[2,1-c][1,4]benzodiazepin-3-yl}(4-methyl-1-piperazinyl)methanone], the inhibition at 0.1 µM was 34%.

On to `COc1cc(C(=O)N2Cc3ccc(C(=O)N4CCCN(C)CC4)n3Cc3ccccc32)ccc1-n1c(C)ccc1C` [Example 307, {10-[4-(2,5-Dimethyl-1H-pyrrol-1-yl)-3-methoxybenzoyl]-10,11-dihydro-5H-pyrrolo[2,1-c][1,4]benzodiazepin-3-yl}(4-methyl-1,4-diazepan-1-yl)methanone], for which the inhibition at 0.1 µM was 30%. For the molecule `COc1cc(C(=O)N2Cc3ccc(C(=O)NCCCN(C)C)n3Cc3ccccc32)ccc1-n1c(C)ccc1C` [Example 308, N-[3-(Dimethylamino)propyl]-10-[4-(2,5-dimethyl-1H-pyrrol-1-yl)-3-methoxybenzoyl]-10,11-dihydro-5H-pyrrolo[2,1-c][1,4]benzodiazepine-3-carboxamide], the inhibition at 0.1 µM was determined as 7%. The result for `COc1cc(C(=O)N2Cc3ccc(C(=O)N(C)CCN(C)C)n3Cc3ccccc32)ccc1-n1c(C)ccc1C` [Example 309, N-[2-(Dimethylamino)ethyl]-10-[4-(2,5-dimethyl-1H-pyrrol-1-yl)-3-methoxybenzoyl]-N-methyl-10,11-dihydro-5H-pyrrolo[2,1-c][1,4]benzodiazepine-3-carboxamide] reads 72%. With `COc1cc(C(=O)N2Cc3ccc(C(=O)N4CCC(N5CCCCC5)CC4)n3Cc3ccccc32)ccc1-n1c(C)ccc1C` [Example 311, {10-[4-(2,5-Dimethyl-1H-pyrrol-1-yl)-3-methoxy-benzoyl]-10,11-dihydro-5H-pyrrolo[2,1-c][1,4]benzodiazepin-3-yl}[4-(1-piperidinyl)-1-piperidinyl]-methanone] the figure was 16%; with `COc1cc(C(=O)N2Cc3ccc(C(=O)NCCCn4ccnc4)n3Cc3ccccc32)ccc1-n1c(C)ccc1C` [Example 312, 10-[4-(2,5-Dimethyl-1H-pyrrol-1-yl)-3-methoxybenzoyl]-N-[3-(1H-imidazol-1-yl)propyl]-10,11-dihydro-5H-pyrrolo[2,1-c][1,4]benzodiazepine-3-carboxamide], 16%. As for `COc1cc(C(=O)N2Cc3ccc(C(=O)N4CCC(N5CCCC5)CC4)n3Cc3ccccc32)ccc1-n1c(C)ccc1C` [Example 313, {10-[4-(2,5-Dimethyl-1H-pyrrol-1-yl)-3-methoxybenzoyl]-10,11-dihydro-5H-pyrrolo[2,1-c][1,4]benzodiazepin-3-yl}[4-(1-pyrrolidinyl)-1-piperidinyl]methanone], the inhibition at 0.1 µM worked out at 32%. Regarding `COc1cc(C(=O)N2Cc3ccc(C(=O)NCCN4CCCCC4)n3Cc3ccccc32)ccc1-n1c(C)ccc1C` [Example 314, 10-[4-(2,5-Dimethyl-1H-pyrrol-1-yl)-3-methoxybenzoyl]-N-[2-(1-piperidinyl)ethyl]-10,11-dihydro-5H-pyrrolo[2,1-c][1,4]benzodiazepine-3-carboxamide], the inhibition at 0.1 µM is 19%. As for `COc1cc(C(=O)N2Cc3ccc(C(=O)NCCC4CCCN4C)n3Cc3ccccc32)ccc1-n1c(C)ccc1C` (stereo not drawn) [Example 315, 10-[4-(2,5-Dimethyl-1H-pyrrol-1-yl)-3-methoxybenzoyl]-N-[2-(1-methyl-2-pyrrolidinyl)ethyl]-10,11-dihydro-5H-pyrrolo[2,1-c][1,4]benzodiazepine-3-carboxamide], the inhibition at 0.1 µM was found to be 10%. For `COc1cc(C(=O)N2Cc3ccc(C(=O)N4CCN(CCN(C)C)CC4)n3Cc3ccccc32)ccc1-n1c(C)ccc1C` [Example 316, {4-[2-(Dimethylamino)ethyl]-1-piperazinyl}{10-[4-(2,5-dimethyl-1H-pyrrol-1-yl)-3-methoxybenzoyl]-10,11-dihydro-5H-pyrrolo[2,1-c][1,4]benzodiazepin-3-yl}methanone], the inhibition at 0.1 µM came to 24%.

On to `COc1cc(C(=O)N2Cc3ccc(C(=O)N4CCN(CCN5CCOCC5)CC4)n3Cc3ccccc32)ccc1-n1c(C)ccc1C` [Example 317, {10-[4-(2,5-Dimethyl-1H-pyrrol-1-yl)-3-methoxybenzoyl]-10,11-dihydro-5H-pyrrolo[2,1-c][1,4]benzodiazepin-3-yl}{4-[2-(4-morpholinyl)ethyl]-1-piperazinyl}methanone], for which the inhibition at 0.1 µM came to 32%. Consider `C=CCN1CCN(C(=O)c2ccc3n2Cc2ccccc2N(C(=O)c2ccc(-n4c(C)ccc4C)c(OC)c2)C3)CC1` [Example 318, (4-Allyl-1-piperazinyl){10-[4-(2,5-dimethyl-1H-pyrrol-1-yl)-3-methoxybenzoyl]-10,11-dihydro-5H-pyrrolo[2,1-c][1,4]benzodiazepin-3-yl}methanone], for which the inhibition at 0.1 µM came to 32%.

Take `COc1cc(C(=O)N2Cc3ccc(C(=O)N4CCN(C(C)C)CC4)n3Cc3ccccc32)ccc1-n1c(C)ccc1C` [Example 319, {10-[4-(2,5-Dimethyl-1H-pyrrol-1-yl)-3-methoxybenzoyl]-10,11-dihydro-5H-pyrrolo[2,1-c][1,4]benzodiazepin-3-yl}(4-isopropyl-1-piperazinyl)methanone]: the inhibition at 0.1 µM amounted to 22%. Take `COc1cc(C(=O)N2Cc3ccc(C(=O)N4CCN(CCCN(C)C)CC4)n3Cc3ccccc32)ccc1-n1c(C)ccc1C` [Example 320, {4-[3-(Dimethylamino)propyl]-1-piperazinyl}{10-[4-(2,5-dimethyl-1H-pyrrol-1-yl)-3-methoxybenzoyl]-10,11-dihydro-5H-pyrrolo[2,1-c][1,4]benzodiazepin-3-yl}methanone]: the inhibition at 0.1 µM is 34%.

For the molecule `Cc1cc(C(=O)N2Cc3cccn3Cc3ncccc32)ccc1-c1ccccc1C(F)(F)F` [Example 323F, (2-Methyl-2′-trifluoromethyl-[1,1′-biphenyl]-4-yl)-(4H,10H-3a,5,9-triaza-benzo[f]azulen-9-yl)-methanone], the inhibition at 0.1 µM was 33%.

The values are drawn from patent US7109193B2, “Tricyclic diazepines tocolytic oxytocin receptor antagonists” (Wyeth, priority 2001, dated 2006).
